Test: Ellipsometry of dry TA/MnP-PVPON films at pH 5 and pH 2.5 (film stability)
Type: physicochemical
Description: The stability of the MnP-PVPON/TA multilayers dried from pH=2.5 was examined since ionization of TA is minimized at this pH (below the pKa of TA), which could result in destabilization of the film.
Ellipsometry: Film thickness was measured using a M2000U spectroscopic ellipsometer (Woollam). Single-side polished silicon wafers 500-μm-thick (University Wafer) of 20 mm×50 mm were cleaned in a mixture of concentrated sulfuric acid and Nocromix (Godax Laboratories) for 24 hours, washed with DI water, dried with a stream of nitrogen (Airgas) and used immediately thereafter. First, a precursor layer of poly(ethyleneimine) (PEI, Sigma-Aldrich) was adsorbed onto the wafer surface from 1 mg mL^−1 PEI aqueous solution for 10 min. After that the deposition of TA, PVPON and MnP-PVPON onto silicon wafers coated with a PEI layer was performed using a 5-mL liquid flow-through cell (Woollam) at pH=5 and pH=7.2 (0.01 M phosphate buffer). The pH values of 0.01 M phosphate buffers were adjusted using 0.1 M HCl and NaOH aqueous solutions. Dry thickness measurements were performed between 400 and 1000 nm at 65, 70, and 75° angles of incidence, while wet thickness studies were monitored at 75° incidence angle. […] The thickness of silicon oxide was determined using known optical constants. […]

Molecule `O=C(OC[C@H]1O[C@@H](OC(=O)c2cc(O)c(O)c(OC(=O)c3cc(O)c(O)c(O)c3)c2)[C@H](OC(=O)c2cc(O)c(O)c(OC(=O)c3cc(O)c(O)c(O)c3)c2)[C@@H](OC(=O)c2cc(O)c(O)c(OC(=O)c3cc(O)c(O)c(O)c3)c2)[C@@H]1OC(=O)c1cc(O)c(O)c(OC(=O)c2cc(O)c(O)c(O)c2)c1)c1cc(O)c(O)c(OC(=O)c2cc(O)c(O)c(O)c2)c1` [TA, tannic acid] has a Layer thickness of 1.8 nm and a Total thickness of 4.1 nm.

Reference: patent US20200179294A1, “MANGANOPORPHYRIN-POLYPHENOL MULTILAYER CAPSULES AS RADICAL AND REACTIVE OXYGEN SPECIES SCAVENGERS” (THE UAB RESEARCH FOUNDATION, priority 2018, published 2020)
